Test results as given in PubChem BioAssay AID2060619 (Molecular Pharmacology Branch, DTP, NCI, 2025).
Values joined by “and” are separate entries in the source; they are usually repeats but may differ in a detail not shown here. Identical values can stand only once.

System: 323965-272-R-J2-PDC complex spheroid viability
Experiment: Anticancer human tumor 323965-272-R-J2-PDC patient-derived pancreatic carcinoma cell line growth inhibition [CLK]
Settings: for viability, T/C: stronger effect = lower value
In short: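 Patient-derived tumor cells grown as complex spheroids with HUVEC endothelial cells and mesenchymal stem cells, treated with drug combinations. Concentrations descend in half-log steps from near clinical Cmax, or from 10 microM if Cmax unknown.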

[1] = curve of first compound, second compound 0.0316 µM
[2] = curve of first compound, second compound 0.1 µM
[3] = curve of first compound, second compound 0.316 µM
[4] = curve of first compound, second compound 1 µM
[5] = curve of first compound, second compound 3.16 µM
[6] = curve of first compound, second compound 10 µM
[7] = second compound 0.0316 µM, first compound 0.0316 µM
[8] = second compound 0.0316 µM, first compound 0.1 µM
[9] = second compound 0.0316 µM, first compound 0.316 µM
[10] = second compound 0.0316 µM, first compound 1 µM
[11] = second compound 0.0316 µM, first compound 3.16 µM
[12] = second compound 0.0316 µM, first compound 10 µM
[13] = second compound 0.1 µM, first compound 0.0316 µM
[14] = second compound 0.1 µM, first compound 0.1 µM
[15] = second compound 0.1 µM, first compound 0.316 µM
[16] = second compound 0.1 µM, first compound 1 µM
[17] = second compound 0.1 µM, first compound 3.16 µM
[18] = second compound 0.1 µM, first compound 10 µM
[19] = second compound 0.316 µM, first compound 0.0316 µM
[20] = second compound 0.316 µM, first compound 0.1 µM
[21] = second compound 0.316 µM, first compound 0.316 µM
[22] = second compound 0.316 µM, first compound 1 µM
[23] = second compound 0.316 µM, first compound 3.16 µM
[24] = second compound 0.316 µM, first compound 10 µM
[25] = second compound 1 µM, first compound 0.0316 µM
[26] = second compound 1 µM, first compound 0.1 µM
[27] = second compound 1 µM, first compound 0.316 µM
[28] = second compound 1 µM, first compound 1 µM
[29] = second compound 1 µM, first compound 3.16 µM
[30] = second compound 1 µM, first compound 10 µM
[31] = second compound 3.16 µM, first compound 0.0316 µM
[32] = second compound 3.16 µM, first compound 0.1 µM
[33] = second compound 3.16 µM, first compound 0.316 µM
[34] = second compound 3.16 µM, first compound 1 µM
[35] = second compound 3.16 µM, first compound 3.16 µM
[36] = second compound 3.16 µM, first compound 10 µM
[37] = second compound 10 µM, first compound 0.0316 µM
[38] = second compound 10 µM, first compound 0.1 µM
[39] = second compound 10 µM, first compound 0.316 µM
[40] = second compound 10 µM, first compound 1 µM
[41] = second compound 10 µM, first compound 3.16 µM
[42] = second compound 10 µM, first compound 10 µM
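Note: spheroids exposed to agents for seven days before readout.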
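Throughout, for viability, T/C: percent of DMSO vehicle control wells so 100% = untreated growth.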

COc1ccc([C@@H](O)c2cc(-c3ncnc4cc(N5CCOCC5)ccc34)c(F)cc2Cl)nn1 + CNC(=O)c1ccc(Nc2nc(OC3CCCC3)c3c(-c4ccc5nc(C)oc5c4)c[nH]c3n2)c(OC)c1
IC50 [1]: 9720 nM | IC50 [2]: > 10000 nM | IC50 [3]: 1500 nM | IC50 [4]: < 31.6 nM | IC50 [5]: < 31.6 nM | IC50 [6]: < 31.6 nM | viability, T/C [7]: 99.2% | viability, T/C [8]: 127% | viability, T/C [9]: 110% | viability, T/C [10]: 95.3% | viability, T/C [11]: 79.2% | viability, T/C [12]: 48.9% | viability, T/C [13]: 85.9% | viability, T/C [14]: 79.9% | viability, T/C [15]: 77.7% | viability, T/C [16]: 70.7% | viability, T/C [17]: 63.8% | viability, T/C [18]: 49.1% | viability, T/C [19]: 62% | viability, T/C [20]: 67% | viability, T/C [21]: 49.9% | viability, T/C [22]: 52.1% | viability, T/C [23]: 49.4% | viability, T/C [24]: 40.3% | viability, T/C [25]: 49.2% | viability, T/C [26]: 42.1% | viability, T/C [27]: 42.6% | viability, T/C [28]: 43% | viability, T/C [29]: 40.3% | viability, T/C [30]: 28.5% | viability, T/C [31]: 48.7% | viability, T/C [32]: 41.2% | viability, T/C [33]: 43.7% | viability, T/C [34]: 33.5% | viability, T/C [35]: 32.1% | viability, T/C [36]: 26.8% | viability, T/C [37]: 41.4% | viability, T/C [38]: 47.9% | viability, T/C [39]: 35.7% | viability, T/C [40]: 39.8% | viability, T/C [41]: 31.2% | viability, T/C [42]: 26.7%

CCN1CCN(Cc2ccc(Nc3ncc(F)c(-c4cc(F)c5nc(C)n(C(C)C)c5c4)n3)nc2)CC1 + CN1CCN(c2cc(C(=O)Nc3cc4cc(-c5cnn(C)c5)ccc4cn3)ccn2)CC1
IC50 [1]: > 1000 nM | IC50 [2]: > 1000 nM | IC50 [3]: < 3.16 nM | IC50 [4]: < 3.16 nM | IC50 [5]: < 3.16 nM | IC50 [6]: < 3.16 nM | viability, T/C (second compound 0.0316 µM, first compound 0.00316 µM): 93.6% | viability, T/C (second compound 0.0316 µM, first compound 0.01 µM): 96.1% | viability, T/C [7]: 78.2% | viability, T/C [8]: 73.1% | viability, T/C [9]: 65.2% | viability, T/C [10]: 76.1% | viability, T/C (second compound 0.1 µM, first compound 0.00316 µM): 68.6% | viability, T/C (second compound 0.1 µM, first compound 0.01 µM): 67.8% | viability, T/C [13]: 62.6% | viability, T/C [14]: 60.2% | viability, T/C [15]: 59.7% | viability, T/C [16]: 58.9% | viability, T/C (second compound 0.316 µM, first compound 0.00316 µM): 23.3% | viability, T/C (second compound 0.316 µM, first compound 0.01 µM): 24.5% | viability, T/C [19]: 25.5% | viability, T/C [20]: 27.9% | viability, T/C [21]: 29.6% | viability, T/C [22]: 39.9% | viability, T/C (second compound 1 µM, first compound 0.00316 µM): 3.56% | viability, T/C (second compound 1 µM, first compound 0.01 µM): 3.73% | viability, T/C [25]: 3.71% | viability, T/C [26]: 3.79% | viability, T/C [27]: 7.89% | viability, T/C [28]: 9.9% | viability, T/C (second compound 3.16 µM, first compound 0.00316 µM): 3.02% | viability, T/C (second compound 3.16 µM, first compound 0.01 µM): 5.31% | viability, T/C [31]: 3.88% | viability, T/C [32]: 3.9% | viability, T/C [33]: 4.69% | viability, T/C [34]: 6.79% | viability, T/C (second compound 10 µM, first compound 0.00316 µM): 3.83% | viability, T/C (second compound 10 µM, first compound 0.01 µM): 4.01% | viability, T/C [37]: 4.24% | viability, T/C [38]: 3.37% | viability, T/C [39]: 4.88% | viability, T/C [40]: 5.11%

C=C(F)C(=O)N1CCN(c2nc(OCC3CCCN3C)nc3c2CCN(c2cccc4cccc(Cl)c24)C3)CC1CC#N (configuration not stated) + CNC(=O)c1ccc(Nc2nc(OC3CCCC3)c3c(-c4ccc5nc(C)oc5c4)c[nH]c3n2)c(OC)c1
IC50 [1]: 7910 nM | IC50 [2]: 31.6 nM | IC50 [3]: < 31.6 nM | IC50 [4]: < 31.6 nM | IC50 [5]: < 31.6 nM | IC50 [6]: < 31.6 nM | viability, T/C [7]: 69.7% | viability, T/C [8]: 49.6% | viability, T/C [9]: 52.8% | viability, T/C [10]: 78% | viability, T/C [11]: 85.2% | viability, T/C [12]: 17.7% | viability, T/C [13]: 47.7% | viability, T/C [14]: 40.4% | viability, T/C [15]: 39.6% | viability, T/C [16]: 48.5% | viability, T/C [17]: 64% | viability, T/C [18]: 9.35% | viability, T/C [19]: 36.1% | viability, T/C [20]: 28.4% | viability, T/C [21]: 32.9% | viability, T/C [22]: 33.4% | viability, T/C [23]: 45.2% | viability, T/C [24]: 1.42% | viability, T/C [25]: 25.8% | viability, T/C [26]: 22% | viability, T/C [27]: 25.6% | viability, T/C [28]: 27.8% | viability, T/C [29]: 31% | viability, T/C [30]: 0.63% | viability, T/C [31]: 26.2% | viability, T/C [32]: 20.6% | viability, T/C [33]: 22.1% | viability, T/C [34]: 23.6% | viability, T/C [35]: 28.9% | viability, T/C [36]: 0.56% | viability, T/C [37]: 23.2% | viability, T/C [38]: 20.8% | viability, T/C [39]: 21.2% | viability, T/C [40]: 28.3% | viability, T/C [41]: 24.8% | viability, T/C [42]: 0.31%

C=C(F)C(=O)N1CCN(c2nc(OCC3CCCN3C)nc3c2CCN(c2cccc4cccc(Cl)c24)C3)CC1CC#N (configuration not stated)
viability, T/C (compound 0.0316 µM): 64.5% and 64.8% | viability, T/C (compound 0.1 µM): 50.8% and 64.2% | viability, T/C (compound 0.316 µM): 48.9% and 63% | viability, T/C (compound 1 µM): 69.4% and 61.5% | viability, T/C (compound 3.16 µM): 66.8% and 77.9% | IC50 (curve of compound): 3990 nM and > 10000 nM
